Measurements from US10604473B2, “Lipids that increase insulin sensitivity and methods of using the same” (Beth Israel Deaconess Medical Center, Inc., priority 2013, dated 2020).

What was measured:
STC-1 cells [1] = test: Calcium flux (FURA2) in STC-1 cells; assay type: cell-based; conditions: 100 uM, no extracellular Ca2+
Method: For the experiments summarized in FIG. 39 the method is: Cells grown on collagen coated glass slides were preloaded with the calcium indicator, FURA2, for 60 minutes. Buffer containing either FAHFAs or vehicle was incubated with cells for a period of 3 minutes followed by washout with buffer alone. FURA2 fluorescence, an indicator of Calcium mobilization, was monitored continuously before and during the addition of compounds and throughout the washout period. Results were analyzed with metamorph software. Calcium Flux in STC-1 (intestinal enteroendocrine) cells in the absence of extracellular calcium (calcium free buffer). Ligands were injected after 3 minutes and washed out after an additional 3 minutes. The data presented is the average fold change in Fura2 fluorescence for 10 individual STC-1 cells in the same field.
DMSO control had no effect. Top panel is linoleic acid, a positive control. Middle panel 9-PAHSA (100 uM). Bottom panel 5-PAHSA (100 μM). These experiments were done in the absence of extracellular calcium.

Ins1 cells = test: Insulin release in INS1 cells; assay type: cell-based; conditions: 25 mM glucose in the media
Method: Ins1 cells (FIG. 21) or primary rat islet cells (FIG. 22) were seeded in 24 well-plates [˜10^6 cells/well]. At confluence, cells were incubated with Low Serum [2.5%] and Low Glucose [2.5 mM] media for 12 hours. Next, cells were incubated with KRB buffer for 1 h and stimulated with glucose in the presence of 5-PAHSA (FIG. 21) or 9-PAHSA (FIG. 21) for 45 min in KRB. At the end of the stimulation, 100 μL of media was collected and 10 μL was used to quantitate the amount of insulin released by ELISA. Treatment Conditions for FIGS. 21 and 22 were: • 5-PAHSA or 9-PAHSA [Stock]=20.0 mM [10.76 mg/mL Methanol] • A] 1 uM=0.3 uL/6 mL [Amount of methanol/mL=0.05 uL] • B] 5 uM=1.5 uL/6 mL [Amount of methanol/mL=0.25 uL] • C] 10 uM=3.0 uL/6 mL [Amount of methanol/mL=0.50 uL] • D] 20 uM=6.0 uL/6 mL [Amount of methanol/mL=1.00 uL]
INS-1 cells were seeded in 24 well-plates [˜10^6 cells/well] and at 80% confluence, were cultured overnight in RPMI 1640 medium containing 2.5 mM glucose and 2.5% fetal bovine serum supplemented with 100 IU/ml penicillin and […], 1 mM sodium pyruvate, 2-mercaptoethanol (50 μM) and 10 mM HEPES (pH 7.4). […] At the end of the stimulation supernatant was collected and insulin released into the medium was quantified by ELISA as per manufacturer's protocol. […]

STC-1 cells [2] = test: ERK phosphorylation in STC-1 cells (immunoblot); assay type: cell-based; conditions: 15 minutes stimulation
Method: For the experiments summarized in FIG. 40, STC-1 cells were incubated with 9-PAHSA, 5-PAHSA or 9-OAHSA at the indicated concentrations. Cells were harvested and lysed and proteins were separated by SDS PAGE and transferred onto nitrocellulose filters. The phosphorylation of ERK and the amount of total ERK was determined by immunoblotting with antibodies specific for total or phosphor-ERK. DMSO was the control. For ERK phosphorylation, cells were serum deprived overnight and stimulated with FAHFAs or vehicle as indicated for 15 minutes followed by lysis in RIPA buffer and analysis by SDS-PAGE

[3] = system: insulin-resistant high-fat fed mice; test: Insulin tolerance test in HFD-fed mice; assay type: in vivo, mouse; conditions: for baseline glycemia: 2.5-3 hours after administration; for area above the insulin response curve / insulin sensitivity: ITT
Method: Area under the curve (AUC), *p<0.05 compared to vehicle. […] Area above the curve (AAC). *p<0.05 compared to vehicle. […] Area under the curve (AUC). *p<0.05 compared to vehicle. FIG. 53D is a bar graph showing serum insulin levels 5 min post glucose challenge in chow-fed mice gavaged with 5-PAHSA or vehicle (glucose values shown in FIG. 53C). n=12-14 per group, *p<0.05 compared to vehicle by t-test. FIG. 53E is a bar graph showing serum GLP-1 levels 5 min post glucose challenge from chow-fed mice gavaged with 5-PAHSA or vehicle (glucose levels in FIG. 53C). n=12-14 per group, *p<0.05 compared to vehicle by t-test. FIG. 53F are bar graphs showing insulin secretion from primary human islets from two independent donors. Islets were incubated with low (2.5 mM) or high (20 mM) glucose ex vivo in the presence of 5-PAHSA (20 μM) or vehicle control. n=100 islets per condition, *p<0.05 compared to control 2.5 mM glucose, ^#p<0.05 compared to respective treatments at 2.5 mM glucose, ^$p<0.05 compared to control or diluents at 20 mM glucose by t-test. FIG. 53G are bar graphs showing active GLP-1 secretion from STC-1 cells in response to 5-PAHSA (5-P), 9-PAHSA (9P), […] (LA), GW9508 (GW) or vehicle control (DMSO). n=4 per group, *p<0.05 compared to vehicle by t-test. All data are mean±s.e.m. See also FIG. 56.

In the case of CCCCCCCCCCCCCCCC(=O)OC(CCCCCCCCCCCCC)CCCC(=O)O (stereo not drawn) [5-PAHSA], the “Ca2+ flux from intracellular stores” value (STC-1 cells [1]) is reported as “induce Ca2+ flux from intracellular stores”, the insulin secretion (Ins1 cells) is reported as “potentiate insulin secretion” and the ERK phosphorylation (STC-1 cells [2]) is reported as “induce ERK phosphorylation”. For the same molecule, the baseline glycemia [3] was “lowered baseline glycemia”, the “area above the insulin response curve” value [3] was “more than a doubling” and the insulin sensitivity [3] was “improved insulin sensitivity”.
In the case of CCCCCCCCCCCCCCCC(=O)OC(CCCCCCCCC)CCCCCCCC(=O)O (stereo not drawn) [9-PAHSA, palmitoyl-9-hydroxystearic acid], the “Ca2+ flux from intracellular stores” value (STC-1 cells [1]) is reported as “induce Ca2+ flux from intracellular stores”, the insulin secretion (Ins1 cells) is reported as “potentiate insulin secretion” and the ERK phosphorylation (STC-1 cells [2]) is reported as “induce ERK phosphorylation”. The baseline glycemia [3] was “lowered baseline glycemia”, the “area above the insulin response curve” value [3] was “more than a doubling” and the insulin sensitivity [3] was “improved insulin sensitivity”.
